The source of these data is US12043612B2, “Methods of manufacturing a bifunctional compound, ultrapure forms of the bifunctional compound, and dosage forms comprising the same” (Arvinas Operations, Inc., priority 2020, dated 2024).

Molecules are shown by their SMILES. Converted amounts (≈) assume the structure as drawn. Where two headings read alike, the source gives them in different places.

The nature of series [1]: Solubility of Compound A in solvents at 24° C. ± 3° C., 24 h. It is filed as physicochemical. The note with it: organic solvent or mixture, thermodynamic from solid. How it is done: This batch was prepared for use in the 28-day good laboratory practice (GLP) toxicology studies using the same synthetic scheme and processing employed in preparation of active pharmaceutical ingredient (API) to be used in the clinical drug product.

Series [2] is described as follows: Solubility in pH 6.5 simulated intestinal fluid (SIF). It is filed as physicochemical.
Series [3] in a line: Glass transition and recrystallization temperature of amorphous solids. It counts as physicochemical. How it is done:
Thus, while crystals of Compound A are quite stable, there is a significant barrier to transforming to a crystalline state from an amorphous form. Indeed, a ramped temperature increase of a partially-crystalline sample does eventually lead to a recrystallization event, but not until a temperature of 200-220° C. is achieved. […] As discussed below, this robust resistance to crystallization is preserved even in the presence of water.
The amorphous form of pure Compound A is robust with a high Tg and even higher recrystallization temperature. The glass transition temperature does decrease under the plasticizing conditions of high humidity. However, the value is still well above the commonly applied 40-50° C. difference between Tg and any temperature the clinical presentation will encounter.

The nature of another series: BCS designation. The following applies: low solubility, low permeability.
The nature of series [4]: Rat pharmacokinetic studies with solutions and spray-dried dispersions. The note with it: rats; solutions containing solubilizers and precipitation inhibitors.

On to `N#Cc1ccc(O[C@H]2CC[C@H](NC(=O)c3ccc(N4CCC(CN5CCN(c6cc7c(cc6F)C(=O)N(C6CCC(=O)NC6=O)C7=O)CC5)CC4)nn3)CC2)cc1Cl` (some centres unmarked) [Compound A, N-[(1r,4r)-4-(3-chloro-4-cyanophenoxy)cyclohexyl]-6-[4-({4-[2-(2,6-dioxopiperidin-3-yl)-6-fluoro-1,3-dioxo-2,3-dihydro-1H-isoindol-5-yl]piperazin-1-yl}methyl)piperidin-1-yl]pyridazine-3-carboxamide], for which the solubility at 24 h turned out to be 0.79 mg/mL (≈ 973 µM) in series [1] (Acetonitrile, read-out: Solubility, Conc. (mg/mL), 24 h); 25.1 mg/mL (≈ 30900 µM) in series [1] (Dichloromethane, read-out: Solubility, Conc. (mg/mL), 24 h); 100 mg/mL (≈ 123000 µM) in series [1] (Dichloromethane/methanol, read-out: Solubility, Conc. (mg/mL), 24 h); 0.08 mg/mL (≈ 98.5 µM) in series [1] (Ethanol, read-out: Solubility, Conc. (mg/mL), 24 h); 0.2 mg/mL (≈ 246 µM) in series [1] (Ethyl acetate, read-out: Solubility, Conc. (mg/mL), 24 h); 0.29 mg/mL (≈ 357 µM) in series [1] (Methanol, read-out: Solubility, Conc. (mg/mL), 24 h). Further, the solubility at 24 h is 2.8 mg/mL (≈ 3450 µM) in series [1] (Polyethylene glycol-300, read-out: Solubility, Conc. (mg/mL), 24 h) and 0.75 mg/mL (≈ 923 µM) in series [1] (Propylene glycol, read-out: Solubility, Conc. (mg/mL), 24 h). Besides, the solubility was 1.2 µg/mL (≈ 1.48 µM) in series [2] (fassif, thermodynamic from solid, pH 6.5 simulated intestinal fluid (SIF), read-out: crystalline solid's solubility) and 30 µg/mL (≈ 36.9 µM) in series [2] (pH 6.5, fassif, read-out: amorphous solubility in SIF). The “glass transition temperature (Tg)” value in series [3] worked out at 146 °C. In addition, in series [3] (ramped temperature increase of a partially-crystalline sample), the “temperature of recrystallization event” value is 200-220 °C. In the series “BCS designation”, the BCS designation entry is “BCS IV”. Besides, the exposure versus dose entry in series [4] was “Dose-linear exposure escalation”.
